# According to PubChem BioAssay AID248 (DTP/NCI, 2004):
# Values joined by “and” are separate entries in the source; they are usually repeats but may differ in a detail not shown here. Identical values can stand only once. Toxic doses and inconclusive results are not listed.
# Test system: L1210 leukemia ip in BDF1 mice, survival T/C
# Experiment: NCI In Vivo Anticancer Drug Screen. Data for tumor model L1210 Leukemia (intraperitoneal) in B6D2F1 (BDF1) mice
# Conditions: higher = longer survival
# Summary of the method: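 Read-out is survival time, reported as the treated-group measurement over the vehicle-control measurement.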
# [1] = endpoint: mean survival time, dose: 100.0 mg/kg/injection, schedule: Q04DX003 (ip), vehicle: saline
# [2] = endpoint: mean survival time, dose: 200.0 mg/kg/injection, schedule: Q04DX003 (ip), vehicle: saline
# [3] = endpoint: mean survival time, dose: 400.0 mg/kg/injection, schedule: Q04DX003 (ip), vehicle: saline
# [4] = endpoint: mean survival time, dose: 100.0 mg/kg/injection, schedule: Q04DX003 (ip), vehicle: Klucel (hydroxypropylcellulose) (HPC)
# [5] = endpoint: mean survival time, dose: 200.0 mg/kg/injection, schedule: Q04DX003 (ip), vehicle: Klucel (hydroxypropylcellulose) (HPC)
# [6] = endpoint: mean survival time, dose: 400.0 mg/kg/injection, schedule: Q04DX003 (ip), vehicle: Klucel (hydroxypropylcellulose) (HPC)
# [7] = endpoint: mean survival time, dose: 100.0 mg/kg/injection, schedule: Q04DX002 (ip), vehicle: other
# [8] = endpoint: mean survival time, dose: 200.0 mg/kg/injection, schedule: Q04DX002 (ip), vehicle: other
# [9] = endpoint: mean survival time, dose: 400.0 mg/kg/injection, schedule: Q04DX002 (ip), vehicle: other
# [10] = endpoint: mean survival time, dose: 100.0 mg/kg/injection, schedule: Q01DX001 (ip), vehicle: saline
# [11] = endpoint: mean survival time, dose: 200.0 mg/kg/injection, schedule: Q01DX001 (ip), vehicle: saline
# [12] = endpoint: mean survival time, dose: 400.0 mg/kg/injection, schedule: Q01DX001 (ip), vehicle: saline
smiles,measurement,setting,value
C[N+](C)(CC(=O)Nc1cccc(C(F)(F)F)c1)CC(=O)Nc1cccc(C(F)(F)F)c1,T/C,"endpoint: mean survival time, dose: 12.5 mg/kg/injection, schedule: Q01DX009 (ip), vehicle: saline with Tween-80",88 % of control
same,T/C,"endpoint: mean survival time, dose: 25.0 mg/kg/injection, schedule: Q01DX009 (ip), vehicle: saline with Tween-80",94 % of control
same,T/C,"endpoint: mean survival time, dose: 50.0 mg/kg/injection, schedule: Q01DX009 (ip), vehicle: saline with Tween-80",113 % of control
O=C1NCCN1,T/C,"endpoint: mean survival time, dose: 100.0 mg/kg/injection, schedule: Q01DX009 (ip), vehicle: saline",101 % of control
same,T/C,"endpoint: mean survival time, dose: 100.0 mg/kg/injection, schedule: Q04DX002 (ip), vehicle: saline",103 % of control
same,T/C,[1],104 % of control
same,T/C,"endpoint: mean survival time, dose: 200.0 mg/kg/injection, schedule: Q01DX009 (ip), vehicle: saline",106 % of control
same,T/C,"endpoint: mean survival time, dose: 200.0 mg/kg/injection, schedule: Q04DX002 (ip), vehicle: saline",107 % of control
same,T/C,[2],101 % of control
same,T/C,"endpoint: mean survival time, dose: 400.0 mg/kg/injection, schedule: Q01DX009 (ip), vehicle: saline",106 % of control
same,T/C,"endpoint: mean survival time, dose: 400.0 mg/kg/injection, schedule: Q04DX002 (ip), vehicle: saline",107 % of control
same,T/C,[3],95 % of control
N=C(N)c1ccc(Nc2ccc(C(=N)N)cc2)cc1,T/C,"endpoint: mean survival time, dose: 3.0 mg/kg/injection, schedule: Q01DX010 (ip), vehicle: saline",95 % of control and 91 % of control
same,T/C,"endpoint: mean survival time, dose: 6.0 mg/kg/injection, schedule: Q01DX010 (ip), vehicle: saline",95 % of control and 91 % of control
same,T/C,"endpoint: mean survival time, dose: 12.0 mg/kg/injection, schedule: Q01DX010 (ip), vehicle: saline",94 % of control and 97 % of control
same,T/C,"endpoint: mean survival time, dose: 15.0 mg/kg/injection, schedule: Q02DX010 (ip), vehicle: carboxymethylcellulose (CMC)",99 % of control
same,T/C,"endpoint: mean survival time, dose: 24.0 mg/kg/injection, schedule: Q01DX010 (ip), vehicle: saline",89 % of control and 91 % of control
same,T/C,"endpoint: mean survival time, dose: 30.0 mg/kg/injection, schedule: Q02DX010 (ip), vehicle: carboxymethylcellulose (CMC)",103 % of control
same,T/C,"endpoint: mean survival time, dose: 44.0 mg/kg/injection, schedule: Q02DX010 (ip), vehicle: carboxymethylcellulose (CMC)",89 % of control
same,T/C,"endpoint: mean survival time, dose: 47.0 mg/kg/injection, schedule: Q01DX001 (ip), vehicle: water",97 % of control
same,T/C,"endpoint: mean survival time, dose: 66.0 mg/kg/injection, schedule: Q02DX010 (ip), vehicle: carboxymethylcellulose (CMC)",77 % of control
same,T/C,"endpoint: median survival time, dose: 6.0 mg/kg/injection, schedule: Q01DX009 (ip), vehicle: saline",105 % of control and 112 % of control
same,T/C,"endpoint: median survival time, dose: 12.0 mg/kg/injection, schedule: Q01DX009 (ip), vehicle: saline",112 % of control
same,T/C,"endpoint: median survival time, dose: 24.0 mg/kg/injection, schedule: Q01DX009 (ip), vehicle: saline",87 % of control
CCCCCCCCCCCCOc1ccccc1C=O,T/C,[4],101 % of control
same,T/C,[5],106 % of control
same,T/C,[6],96 % of control
C=C1C(=O)OC2C1C(OC(=O)/C(=C/C)COC(C)=O)CC1(CO1)C1C(OC(=O)/C(=C/C)CO)C=C(C)C21 (stereo not given),T/C,"endpoint: mean survival time, dose: 50.0 mg/kg/injection, schedule: Q01DX009 (ip), vehicle: Klucel (hydroxypropylcellulose) (HPC)",93 % of control
same,T/C,"endpoint: mean survival time, dose: 100.0 mg/kg/injection, schedule: Q01DX009 (ip), vehicle: Klucel (hydroxypropylcellulose) (HPC)",93 % of control
same,T/C,"endpoint: mean survival time, dose: 200.0 mg/kg/injection, schedule: Q01DX009 (ip), vehicle: Klucel (hydroxypropylcellulose) (HPC)",86 % of control
NCC1COc2ccccc2N1 (stereo not given),T/C,[7],108 % of control
same,T/C,[8],101 % of control
same,T/C,[9],111 % of control
CCCCNc1ccc(S(=O)(=O)c2ccc(NCCCC)c([N+](=O)[O-])c2)cc1[N+](=O)[O-],T/C,"endpoint: mean survival time, dose: 1.56 mg/kg/injection, schedule: Q01DX009 (ip), vehicle: DMSO",89 % of control
same,T/C,"endpoint: mean survival time, dose: 3.12 mg/kg/injection, schedule: Q01DX009 (ip), vehicle: DMSO",101 % of control
same,T/C,"endpoint: mean survival time, dose: 6.25 mg/kg/injection, schedule: Q01DX009 (ip), vehicle: DMSO",101 % of control
same,T/C,"endpoint: mean survival time, dose: 25.0 mg/kg/injection, schedule: Q01DX009 (ip), vehicle: DMSO",102 % of control
same,T/C,"endpoint: mean survival time, dose: 100.0 mg/kg/injection, schedule: Q01DX005 (ip), vehicle: DMSO",105 % of control
same,T/C,"endpoint: mean survival time, dose: 100.0 mg/kg/injection, schedule: Q01DX009 (ip), vehicle: DMSO",100 % of control
same,T/C,"endpoint: mean survival time, dose: 100.0 mg/kg/injection, schedule: Q04DX002 (ip), vehicle: DMSO",103 % of control
same,T/C,"endpoint: mean survival time, dose: 200.0 mg/kg/injection, schedule: Q01DX005 (ip), vehicle: DMSO",90 % of control
same,T/C,"endpoint: mean survival time, dose: 200.0 mg/kg/injection, schedule: Q04DX002 (ip), vehicle: DMSO",111 % of control
same,T/C,"endpoint: mean survival time, dose: 400.0 mg/kg/injection, schedule: Q01DX005 (ip), vehicle: DMSO",93 % of control
same,T/C,"endpoint: mean survival time, dose: 400.0 mg/kg/injection, schedule: Q04DX002 (ip), vehicle: DMSO",103 % of control
CCC(=O)c1ccc(NC(=S)Nc2ccccc2)cc1,T/C,"endpoint: mean survival time, dose: 5.0 mg/kg/injection, schedule: Q01DX009 (ip), vehicle: saline with Tween-80",104 % of control
same,T/C,"endpoint: mean survival time, dose: 10.0 mg/kg/injection, schedule: Q01DX009 (ip), vehicle: saline with Tween-80",97 % of control
same,T/C,"endpoint: mean survival time, dose: 20.0 mg/kg/injection, schedule: Q01DX009 (ip), vehicle: saline with Tween-80",101 % of control and 86 % of control
same,T/C,"endpoint: mean survival time, dose: 40.0 mg/kg/injection, schedule: Q01DX009 (ip), vehicle: saline with Tween-80",95 % of control and 89 % of control
same,T/C,"endpoint: mean survival time, dose: 80.0 mg/kg/injection, schedule: Q01DX009 (ip), vehicle: saline with Tween-80",86 % of control and 88 % of control
same,T/C,[1],110 % of control
same,T/C,[2],100 % of control
same,T/C,"endpoint: mean survival time, dose: 320.0 mg/kg/injection, schedule: Q01DX009 (ip), vehicle: saline with Tween-80",87 % of control
same,T/C,[3],98 % of control
CCc1ncc(N2C3CCCC2CC(=O)C3)[nH]1,T/C,"endpoint: mean survival time, dose: 75.0 mg/kg/injection, schedule: Q01DX001 (ip), vehicle: saline",98 % of control
same,T/C,"endpoint: mean survival time, dose: 150.0 mg/kg/injection, schedule: Q01DX001 (ip), vehicle: saline",98 % of control
Cc1cc(C)c(-n2c(-c3ccc(Cl)cc3)nnc2-c2ccc(Br)cc2)c(C)c1,T/C,[4],101 % of control
same,T/C,[5],90 % of control
same,T/C,[6],95 % of control
NC(=O)c1[nH]cnc1N,T/C,[10],97 % of control
same,T/C,[11],101 % of control
same,T/C,[12],97 % of control
CNC(=O)OC(C)CN(c1ccccc1)c1ccccc1 (stereo not given),T/C,"endpoint: mean survival time, dose: 50.0 mg/kg/injection, schedule: Q01DX001 (ip), vehicle: saline",98 % of control
same,T/C,[10],104 % of control
same,T/C,[11],98 % of control
same,T/C,[12],102 % of control
COc1cc(C(=O)O/N=C(\N)CCl)cc(OC)c1OC,T/C,"endpoint: mean survival time, dose: 6.25 mg/kg/injection, schedule: Q04DX002 (ip), vehicle: Klucel (hydroxypropylcellulose) (HPC)",92 % of control
same,T/C,"endpoint: mean survival time, dose: 12.5 mg/kg/injection, schedule: Q04DX002 (ip), vehicle: Klucel (hydroxypropylcellulose) (HPC)",88 % of control
same,T/C,"endpoint: mean survival time, dose: 25.0 mg/kg/injection, schedule: Q04DX002 (ip), vehicle: Klucel (hydroxypropylcellulose) (HPC)",88 % of control
CC1CN1CCCNC(=O)C(=O)NCCCN1CC1C (stereo not given),T/C,"endpoint: mean survival time, dose: 12.5 mg/kg/injection, schedule: Q04DX003 (ip), vehicle: saline",110 % of control
same,T/C,"endpoint: mean survival time, dose: 50.0 mg/kg/injection, schedule: Q04DX003 (ip), vehicle: saline",168 % of control
O=C(O)/C=C(/Oc1ccc(Cl)cc1)C(=O)O,T/C,[7],93 % of control
same,T/C,[8],103 % of control
same,T/C,[9],100 % of control
Oc1cc2ccc3c(c2cc1O)CCc1cn[nH]c1-3,T/C,"endpoint: mean survival time, dose: 100.0 mg/kg/injection, schedule: Q01DX001 (ip), vehicle: saline with Tween-80",92 % of control
same,T/C,"endpoint: mean survival time, dose: 400.0 mg/kg/injection, schedule: Q01DX001 (ip), vehicle: saline with Tween-80",92 % of control
